pIC50, pKi: −log10 of the molar value. “And” between values parts separate entries of the source, which are not always exact repeats. Equal values may be shown once.
Columns and labels:
L6 = assay: Cytotoxicity against rat L6 cells; assay type: cell-based
[1] = target: T1, Arabinose 5-phosphate isomerase KdsD (Francisella tularensis subsp. tularensis (strain SCHU S4 / Schu 4), UniProt Q5NGP7)
T1 sequence (Q5NGP7 whole entry): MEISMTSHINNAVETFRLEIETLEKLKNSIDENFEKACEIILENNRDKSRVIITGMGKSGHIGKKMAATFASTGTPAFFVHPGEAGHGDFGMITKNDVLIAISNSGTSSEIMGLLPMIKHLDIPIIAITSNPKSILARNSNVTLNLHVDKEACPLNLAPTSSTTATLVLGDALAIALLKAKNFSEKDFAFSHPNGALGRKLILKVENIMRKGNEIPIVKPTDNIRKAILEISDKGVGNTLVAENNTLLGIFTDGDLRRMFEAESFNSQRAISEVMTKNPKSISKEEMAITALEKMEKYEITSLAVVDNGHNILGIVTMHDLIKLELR

Trypanosoma brucei = assay: Antiparasitic activity against Trypanosoma brucei infected in rat L6 cells; assay type: functional
[2] = target: T2, Ribose-5-phosphate isomerase B (Mycobacterium tuberculosis, UniProt P9WKD7); assay: Inhibition of Mycobacterium tuberculosis rpiB
T2 sequence (P9WKD7 whole entry): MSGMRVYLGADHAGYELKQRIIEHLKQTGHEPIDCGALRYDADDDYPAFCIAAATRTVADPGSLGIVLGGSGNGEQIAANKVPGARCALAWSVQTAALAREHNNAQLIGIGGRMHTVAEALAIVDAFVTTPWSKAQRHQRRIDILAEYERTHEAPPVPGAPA

[3] = Inhibition of Escherichia coli arabinose phosphate isomerase
[4] = Inhibition of xylose isomerase
[5] = target: Glucose-6-phosphate isomerase (Oryctolagus cuniculus, UniProt Q9N1E2); assay: Inhibition of rabbit cytosolic phosphoglucose isomerase
[6] = target: Triosephosphate isomerase (Homo sapiens, UniProt P60174); assay: Inhibition of Triosephosphate isomerase
Chain of Triosephosphate isomerase (P60174 whole entry): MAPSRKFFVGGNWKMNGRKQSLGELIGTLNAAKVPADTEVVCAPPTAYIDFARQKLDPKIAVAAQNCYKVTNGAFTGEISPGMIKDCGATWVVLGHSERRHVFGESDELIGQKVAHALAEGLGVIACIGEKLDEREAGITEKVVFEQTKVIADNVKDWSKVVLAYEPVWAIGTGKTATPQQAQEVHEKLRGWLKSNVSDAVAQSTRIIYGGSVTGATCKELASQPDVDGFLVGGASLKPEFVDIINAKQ

## CC(=O)O[C@H](COP(=O)(O)O)[C@@H](OC(C)=O)C(=O)NO
L6
  Activity: 229 µM
[1]
  pIC50: 5.15
Trypanosoma brucei
  Activity: 229 µM

## O=C(NO)[C@H](O)[C@H](O)COP(=O)(O)O
[1]
  pIC50: 4.46
[2]
  pKi: 3.40 and 4.24

## O=C(O)[C@H](O)[C@H](O)COP(=O)(O)O
[3]
  pIC50: 3.66

## O=C(NO)[C@H](O)[C@H](O)CO
[4]
  pKi: 7.00

## O=C(NO)[C@@H](O)[C@H](O)[C@H](O)COP(=O)(O)O
[5]
  pKi: 7.00

## NC(=O)[C@H](O)[C@H](O)COP(=O)(O)O
[1]
  pIC50: 5.00
[2]
  pKi: < 1.52

## CC1(C)O[C@H](COP(=O)(O)O)[C@H](C(=O)NO)O1
[1]
  pIC50: 2.52

## O=C(COP(=O)(O)O)NO [PHOSPHOGLYCOLOHYDROXAMATE]
[6]
  pKi: 5.40
